Counter-ions that a name gives are not always drawn.
Target: T1, human factor Xa (Homo sapiens, UniProt P00742)
T1 construct: released from the colourless chromogenic substrate by human factor Xa; purchased Roche
Experiment: inhibition of factor Xa, enzyme-kinetic measurement with chromogenic substrate
Assay type: biochemical
Conditions: substrate Chromozym X 200 μMol/l, factor Xa (Roche) 0.175 U/ml, pH 8.0, 37° C., photometric at 405 nm
From the text: For example, the compounds • A=2-(5-carbamimidoyl-2-hydroxy-phenyl)-N-[3-methyl-4-(pyrrolidin-1-yl-carbonyl)-phenyl]-acetamide-hydrochloride, • B=2-(2-benzyloxy-5-carbamimidoyl-phenyl)-N-(2-ethoxycarbonyl-ethyl)-N-[3-methyl-4-(pyrrolidin-1-yl-carbonyl)-phenyl]-acetamide-hydrochloride, • C=2-(2-hydroxy-5-carbamimidoyl-phenyl)-N-(2-ethoxycarbonyl-ethyl)-N-[3-methyl-4-(pyrrolidin-1-yl-carbonyl)-phenyl]-acetamide-hydrochloride, • D=2-(2-hydroxy-5-carbamimidoyl-phenyl)-N-(2-carboxy-ethyl)-N-[3-methyl-4-(pyrrolidin-1-yl-carbonyl)-phenyl]-acetamide-hydrochloride • E=2-(5-carbamimidoyl-2-hydroxy-phenyl)-N-[3-methyl-4-(piperidin-1-yl-carbonyl)-phenyl]-acetamide-hydrochloride and • F=2-(5-carbamimidoyl-2-hydroxy-phenyl)-N-[3-methyl-4-(2-aminosulphonyl-phenyl)-phenyl]-acetamide-hydrochloride, were investigated for their effect on the inhibition of factor Xa as follows: • Method: Enzyme-kinetic measurement with chromogenic substrate. The quantity of anpnitroaniline (pNA) released from the colourless chromogenic substrate by human factor Xa is determined photometrically at 405 nm. It is proportional to the activity of the enzyme used. The inhibition of the enzyme activity by the test substance I (in relation to the solvent control) is determined at various concentrations of test substance and from this the IC50 is calculated, as the concentration which inhibits the factor Xa used by 50%. • Material: • Tris(hydroxymethyl)-aminomethane buffer (100 mmol) of and sodium chloride (150 mMol), pH 8.0 • Factor Xa (Roche), spec. activity: 10 U/0.5 ml, final concentration: 0.175 U/ml per reaction mixture • Substrate Chromozym X (Roche), final concentration: 200 μMol/l per reaction mixture • Test substance: final concentration 100, 30, 10, 3, 1, 0.3, 0.1, 0.03, 0.01, 0.003, 0.001 μMol/l
Procedure: 10 μl of a 23.5-times concentrated starting solution of the test substance or solvent (control), 175 μl of tris(hydroxymethyl)-aminomethane buffer and 25 μl of Factor Xa working solution of 1.65 U/ml are incubated for 10 minutes at 37° C. After the addition of 25 μl of Chromozym X working solution ([…]) the sample is measured in a photometer (SpectraMax 250) at 405 nm for 150 seconds at 37° C.
• 1. Determining the maximum increase (deltaOD/minutes) over 3 measuring points. • 2. Determining the % inhibition based on the solvent control. • 3. Plotting a dosage/activity curve (% inhibition vs substance concentration). • 4. Determining the IC50 by interpolating the X value (substance concentration) of the dosage/activity curve at Y=50% inhibition.

T1 sequence (P00742 235-488 limits assumed): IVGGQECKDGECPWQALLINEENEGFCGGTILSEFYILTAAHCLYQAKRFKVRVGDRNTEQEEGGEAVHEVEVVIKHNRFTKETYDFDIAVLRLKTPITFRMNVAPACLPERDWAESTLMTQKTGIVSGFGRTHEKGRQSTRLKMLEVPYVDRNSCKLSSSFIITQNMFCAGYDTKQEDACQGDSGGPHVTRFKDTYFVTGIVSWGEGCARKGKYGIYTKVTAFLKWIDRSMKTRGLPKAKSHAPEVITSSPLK
T1 sequence (P00742 41-179 partner limits assumed): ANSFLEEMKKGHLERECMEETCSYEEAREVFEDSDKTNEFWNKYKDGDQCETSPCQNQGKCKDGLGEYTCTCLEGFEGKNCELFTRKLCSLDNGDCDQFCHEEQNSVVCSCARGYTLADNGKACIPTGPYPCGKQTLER

Row | SMILES | IC50 [µM]
1 | CCOC(=O)CCN(C(=O)Cc1cc(C(=N)N)ccc1OCc1ccccc1)c1ccc(C(=O)N2CCCC2)c(C)c1 [B, 2-(2-benzyloxy-5-carbamimidoyl-phenyl)-N-(2-ethoxycarbonyl-ethyl)-N-[3-methyl-4-(pyrrolidin-1-yl-carbonyl)-phenyl]-acetamide-hydrochloride] | 0.68
2 | CCOC(=O)CCN(C(=O)Cc1cc(C(=N)N)ccc1O)c1ccc(C(=O)N2CCCC2)c(C)c1 [C, 2-(2-hydroxy-5-carbamimidoyl-phenyl)-N-(2-ethoxycarbonyl-ethyl)-N-[3-methyl-4-(pyrrolidin-1-yl-carbonyl)-phenyl]-acetamide-hydrochloride] | 0.12
3 | Cc1cc(N(CCC(=O)O)C(=O)Cc2cc(C(=N)N)ccc2O)ccc1C(=O)N1CCCC1 [D, 2-(2-hydroxy-5-carbamimidoyl-phenyl)-N-(2-carboxy-ethyl)-N-[3-methyl-4-(pyrrolidin-1-yl-carbonyl)-phenyl]-acetamide-hydrochloride] | 0.85

Next, values leading:

Row | IC50 [µM] | SMILES
4 | 0.03 | Cc1cc(NC(=O)Cc2cc(C(=N)N)ccc2O)ccc1C(=O)N1CCCC1 [A, 2-(5-carbamimidoyl-2-hydroxy-phenyl)-N-[3-methyl-4-(pyrrolidin-1-yl-carbonyl)-phenyl]-acetamide-hydrochloride]
5 | 0.085 | Cc1cc(NC(=O)Cc2cc(C(=N)N)ccc2O)ccc1C(=O)N1CCCCC1 [E, 2-(5-carbamimidoyl-2-hydroxy-phenyl)-N-[3-methyl-4-(piperidin-1-yl-carbonyl)-phenyl]-acetamide-hydrochloride]
6 | 0.26 | Cc1cc(NC(=O)Cc2cc(C(=N)N)ccc2O)ccc1-c1ccccc1S(N)(=O)=O [F, 2-(5-carbamimidoyl-2-hydroxy-phenyl)-N-[3-methyl-4-(2-aminosulphonyl-phenyl)-phenyl]-acetamide-hydrochloride]

Test system: not given
Experiment: not given
Conditions: not given

Row | melting point | SMILES
7 | 190 to 215 °C | Cl.N=C(N)c1cccc(C(=O)NCc2ccc(NC(=O)c3ccccc3)cc2)c1
8 | 266 °C | Cl.N=C(N)c1cccc(C(=O)NCc2ccc(NS(=O)(=O)c3ccccc3)cc2)c1
9 | 115 °C (dec.) | Cl.N=C(N)c1cccc(C(=O)NCc2ccc(Oc3ccncc3)cc2)c1
